Like-named read-outs stand apart in the source and are kept apart here.
Legend:
786-0 = assay: NCI 60 antitumor screening (single dose / five doses); assay type: cell-based; conditions: Homo sapiens
ACHN = assay: as above; assay type: cell-based; conditions: Homo sapiens, read-out: Growth inhibition percentage (GI %)
HL-60(TB) = assay: as above; assay type: cell-based; conditions: Homo sapiens
LOX IMVI = assay: as above; assay type: cell-based; conditions: Homo sapiens, read-out: Growth inhibition percentage (GI %)
COLO 205 = assay: as above; assay type: cell-based; conditions: Homo sapiens
RPMI-8226 = assay: as above; assay type: cell-based; conditions: Homo sapiens
HT29 = assay: as above; assay type: cell-based, human; conditions: Homo sapiens
K-562 = assay: as above; assay type: cell-based; conditions: Homo sapiens
HCT-15 = assay: as above; assay type: cell-based; conditions: Homo sapiens
SW-620 = assay: as above; assay type: cell-based, human; conditions: Homo sapiens
UACC-62 = assay: as above; assay type: cell-based; conditions: Homo sapiens
IGROV1 = assay: as above; assay type: cell-based; conditions: Homo sapiens
UACC-257 = assay: as above; assay type: cell-based; conditions: Homo sapiens
BT-549 = assay: as above; assay type: cell-based; conditions: Homo sapiens
SF-295 = assay: as above; assay type: cell-based; conditions: Homo sapiens
MDA-MB-231/ATCC = assay: as above; assay type: cell-based; conditions: Homo sapiens
SK-MEL-5 = assay: as above; assay type: cell-based; conditions: Homo sapiens
OVCAR-8 = assay: NCI 60 antitumor screening (single dose); assay type: cell-based; conditions: Homo sapiens
Summary of the method: (§1)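 GI% derived as 100 − G% from triplicate growth measurements in the NCI 60 human tumour panel, compound 10 μM, single dose, per NCI protocol.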

NCI-H460 = assay: NCI 60 antitumor screening (single dose); assay type: cell-based; conditions: Homo sapiens; NCI-H460 (non-small cell lung cancer), single dose 10 μM; read-out: Growth inhibition percentage (GI %)
Summary of the method: (§2)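 Assessment used the first tier of the NCI 60 screen, one dose of 10 μM per compound. Triplicate experiments gave percent growth of treated cells. Inhibition was then derived as 100 − G%.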

HCC-2998 = assay: NCI 60 antitumor screening (single dose); assay type: cell-based; conditions: Homo sapiens; HCC-2998 (colon cancer), single dose 10 μM; read-out: Growth inhibition percentage (GI %)
Summary of the method: as §2

PC-3 = assay: NCI 60 antitumor screening (single dose); assay type: cell-based; conditions: Homo sapiens
Summary of the method: as §1

TK-10 = assay: NCI 60 antitumor screening (single dose); assay type: cell-based; conditions: Homo sapiens
Summary of the method: as §1

HOP-62 = assay: NCI 60 antitumor screening (single dose); assay type: cell-based; conditions: Homo sapiens; HOP-62 (non-small cell lung cancer), single dose 10 μM; read-out: Growth inhibition percentage (GI %)
Summary of the method: as §2

EKVX = assay: NCI 60 antitumor screening (single dose / five doses); assay type: cell-based; conditions: Homo sapiens, read-out: Growth inhibition percentage (GI %)
RXF 393 = assay: as above; assay type: cell-based; conditions: Homo sapiens
UO-31 = assay: as above; assay type: cell-based; conditions: Homo sapiens
MOLT-4 = assay: as above; assay type: cell-based; conditions: Homo sapiens
MDA-MB-468 = assay: as above; assay type: cell-based; conditions: Homo sapiens

`COC(=O)C(Cc1ccccc1)Nc1nc(NC(Cc2ccccc2)C(=O)OC)nc(N2CCOCC2)n1` (centres unmarked) [compound 8c, Methyl 2-({4-[(1-methoxy-1-oxo-3-phenylpropan-2-yl)amino]-6-(morpholin-4-yl)-1,3,5-triazin-2-yl}amino)-3-phenylpropanoate] showed an inhibition at 10 µM (786-0; 786-0, 786-0 (renal cancer), single dose 10 μM, read-out: Growth inhibition percentage (GI %)) of -0.43%, an inhibition at 10 µM (ACHN; ACHN (renal cancer), single dose 10 μM) of -8.95% and an inhibition at 10 µM (HL-60(TB); HL-60(TB) (leukaemia), single dose 10 μM, read-out: Growth inhibition percentage (GI %)) of -2.51%. For the same molecule, the inhibition at 10 µM (LOX IMVI; LOX IMVI (melanoma), single dose 10 μM) was -5.03%, the inhibition at 10 µM (COLO 205; COLO 205 (colon cancer), single dose 10 μM, read-out: Growth inhibition percentage (GI %)) was -4.56% and the inhibition at 10 µM (RPMI-8226; RPMI-8226 (leukaemia), single dose 10 μM, read-out: Growth inhibition percentage (GI %)) was 1.47%. The inhibition at 10 µM (HT29; HT-29, HT29 (colon cancer), single dose 10 μM, read-out: Growth inhibition percentage (GI %)) was -0.61%, the inhibition at 10 µM (K-562; K562, K-562 (leukaemia), single dose 10 μM, read-out: Growth inhibition percentage (GI %)) was 8.42% and the inhibition at 10 µM (HCT-15; HCT-15 (colon cancer), single dose 10 μM, read-out: Growth inhibition percentage (GI %)) was -6.16%. It also gave an inhibition at 10 µM (SW-620; SW-620 (colon cancer), single dose 10 μM, read-out: Growth inhibition percentage (GI %)) of -11.7%, an inhibition at 10 µM (UACC-62; UACC-62 (melanoma), single dose 10 μM, read-out: Growth inhibition percentage (GI %)) of 9.82% and an inhibition at 10 µM (IGROV1; IGROV-1, IGROV1 (ovarian cancer), single dose 10 μM, read-out: Growth inhibition percentage (GI %)) of 1.38%. For the same molecule, the inhibition at 10 µM (UACC-257; UACC-257 (melanoma), single dose 10 μM, read-out: Growth inhibition percentage (GI %)) was -3.35%, the inhibition at 10 µM (BT-549; BT-549 (breast cancer), single dose 10 μM, read-out: Growth inhibition percentage (GI %)) was -11.7% and the inhibition at 10 µM (SF-295; SF-295 (CNS cancer), single dose 10 μM, read-out: Growth inhibition percentage (GI %)) was -7.74%. For the same molecule, the inhibition at 10 µM (MDA-MB-231/ATCC; MDA-MB-231/ATCC (breast cancer), single dose 10 μM, read-out: Growth inhibition percentage (GI %)) was -2.54%, the inhibition at 10 µM (SK-MEL-5; SK-MEL-5 (melanoma), single dose 10 μM, read-out: Growth inhibition percentage (GI %)) was 1.32% and the inhibition at 10 µM (OVCAR-8; OVCAR-8 (ovarian cancer), single dose 10 μM, read-out: Growth inhibition percentage (GI %)) was 0.4%. For the same molecule, the inhibition at 10 µM (NCI-H460) was -6.88%, the inhibition at 10 µM (HCC-2998) was -9.86% and the inhibition at 10 µM (PC-3; PC-3 (prostate cancer), single dose 10 μM, read-out: Growth inhibition percentage (GI %)) was -2.72%. It also gave an inhibition at 10 µM (TK-10; TK-10 (renal cancer), single dose 10 μM, read-out: Growth inhibition percentage (GI %)) of -3.4%, an inhibition at 10 µM (HOP-62) of 2.66% and an inhibition at 10 µM (EKVX; EKVX (non-small cell lung cancer), single dose 10 μM) of -4.54%. For the same molecule, the inhibition at 10 µM (RXF 393; RXF 393 (renal cancer), single dose 10 μM, read-out: Growth inhibition percentage (GI %)) was -12.7%, the inhibition at 10 µM (UO-31; UO-31 (renal cancer), single dose 10 μM, read-out: Growth inhibition percentage (GI %)) was 18.8% and the inhibition at 10 µM (MOLT-4; MOLT-4 (leukaemia), single dose 10 μM, read-out: Growth inhibition percentage (GI %)) was -1.03%. It also gave an inhibition at 10 µM (MDA-MB-468; MDA-MB-468 (breast cancer), single dose 10 μM, read-out: Growth inhibition percentage (GI %)) of -7.75%.
For `O=[N+]([O-])c1cccc(/C=N/Nc2nc(N/N=C/c3cccc([N+](=O)[O-])c3)nc(N3CCOCC3)n2)c1` [compound 6f, 2-(Morpholin-4-yl)-4,6-bis[(E)-2-[(3-nitrophenyl)methylidene]hydrazin-1-yl]-1,3,5-triazine], the inhibition at 10 µM (786-0; 786-0, read-out: Growth inhibition percentage (GI %)) was 30.4%, the inhibition at 10 µM (ACHN; ACHN) was 30.2% and the inhibition at 10 µM (HL-60(TB); HL-60, read-out: Growth inhibition percentage (GI %)) was 47.8%. The inhibition at 10 µM (LOX IMVI; LOX IMVI) was 39.5%, the inhibition at 10 µM (COLO 205; COLO 205, read-out: Growth inhibition percentage (GI %)) was 44.2% and the inhibition at 10 µM (RPMI-8226; RPMI-8226, read-out: Growth inhibition percentage (GI %)) was 66.4%. It also gave an inhibition at 10 µM (HT29; HT-29, read-out: Growth inhibition percentage (GI %)) of 42.2%, an inhibition at 10 µM (K-562; K562, read-out: Growth inhibition percentage (GI %)) of 63.3% and an inhibition at 10 µM (HCT-15; HCT-15, read-out: Growth inhibition percentage (GI %)) of 53.2%. For the same molecule, the inhibition at 10 µM (SW-620; SW-620, read-out: Growth inhibition percentage (GI %)) was 18.4%, the inhibition at 10 µM (UACC-62; UACC-62, read-out: Growth inhibition percentage (GI %)) was 21.1% and the inhibition at 10 µM (IGROV1; IGROV-1, read-out: Growth inhibition percentage (GI %)) was 42.6%. For the same molecule, the inhibition at 10 µM (UACC-257; UACC-257, read-out: Growth inhibition percentage (GI %)) was 9.17%, the inhibition at 10 µM (BT-549; BT-549, read-out: Growth inhibition percentage (GI %)) was 11.7% and the inhibition at 10 µM (SF-295; SF-295, read-out: Growth inhibition percentage (GI %)) was 13.7%. For the same molecule, the inhibition at 10 µM (MDA-MB-231/ATCC; MDA-MB-231, read-out: Growth inhibition percentage (GI %)) was 2.27%, the inhibition at 10 µM (SK-MEL-5; SK-MEL-5, read-out: Growth inhibition percentage (GI %)) was 36.9% and the inhibition at 10 µM (OVCAR-8; OVCAR-8, read-out: Growth inhibition percentage (GI %)) was 39.9%. It also gave an inhibition at 10 µM (NCI-H460) of 17%, an inhibition at 10 µM (HCC-2998) of -2.57% and an inhibition at 10 µM (PC-3; PC-3, read-out: Growth inhibition percentage (GI %)) of 37.9%. The inhibition at 10 µM (TK-10; TK-10, read-out: Growth inhibition percentage (GI %)) was -45.7%, the inhibition at 10 µM (HOP-62) was 26.4% and the inhibition at 10 µM (EKVX; EKVX) was 11%. For the same molecule, the inhibition at 10 µM (RXF 393; RXF 393, read-out: Growth inhibition percentage (GI %)) was 28.1%, the inhibition at 10 µM (UO-31; UO-31, read-out: Growth inhibition percentage (GI %)) was 50.7% and the inhibition at 10 µM (MOLT-4; MOLT-4, read-out: Growth inhibition percentage (GI %)) was 52.7%. It also gave an inhibition at 10 µM (MDA-MB-468; MDA-MB-468, read-out: Growth inhibition percentage (GI %)) of 1.3%.
